Measured values: patent US11369586B2, “Antifungal peptoids” (MIDDLE TENNESSEE STATE UNIVERSITY, priority 2018, dated 2022)

Columns and labels:
[1] = test system: HepG2 hepatocarcinoma cells; test: Mammalian cytotoxicity testing (MTT), HepG2; assay type: cell-based; settings: for toxicity dose 50% (TD50), HepG2: sarcosine scan
Procedure: (§1) NIH/3T3 mouse fibroblasts and HepG2 hepatocarcinoma cells, cells were grown in DMEM containing 10% FBS at 37° C. and 5% CO2 atmosphere. For cytotoxicity testing, cells were seeded into 96-well plates in phenol red free DMEM containing 10% FBS and incubated for 2 hours to allow cell attachment. Cells were then treated with varying concentrations of peptoid or vehicle control. After 72 hours incubation, 3-(4,5-dimethylthiazol-2-yl)-2,5-diphenyltetrazolium bromide (MTT; 20 μL; 5 mg/mL) was added to each well and the plate incubated for 3.5 hours. Media was removed from each well and 100 μL of DMSO was added and the plate incubated at 37° C. for 10 minutes. The absorbance at 570 nm was then read on a spectrophotometer, percent inhibition determined, and TD50 calculated using GraFit. All triplicate assays were repeated twice on different days.

[2] = Corson et al. 2016; cited from earlier work
[3] = test system: C. neoformans H99S (serotype A lab strain); test: Minimum inhibitory concentration (MIC) testing, CLSI broth dilution, PrestoBlue viability; assay type: cell-based, Cryptococcus neoformans
Procedure: The minimum inhibitory concentration (MIC) was determined against C. neoformans H99S (serotype A lab strain) as previously described. (Corson, et al. ACS Med. Chem. Lett. 2016, 7(12).) All MIC assays were carried out following CLSI guidelines. (CLSI. Reference method for broth dilution antifungal susceptibility testing of yeasts; approved standard-third edition; CLSI document M27-A3; Clinical and Laboratory Standards Institute: Wayne, Pa.) Briefly, the organism to be tested was streaked from frozen stock for isolation and incubated for 96 hours. A 5 mL solution of 0.85% saline was inoculated with 1-2 colonies of the organism of interest, and the inoculated solution was vortexed for one minute. The optical density at 530 nanometers (nm) was acquired on a spectrophotometer and adjusted through addition of saline or cells to obtain an OD530nm of 0.15 to 0.25. A 1:100 solution of Roswell Park Memorial Institute (RPMI) media containing 3-morpholinopropane sulfonic acid (MOPS; 0.1 M) and cells was made by adding 0.100 mL of saline inoculated with cells to 9.9 mL of RMPI. The solution was vortexed and used to make a 1:20 solution by adding and vortexing 0.5 mL of the 1:100 solution to 9.5 mL of RPMI+0.1 M MOPS. (This was repeated twice to make a total of 20 mL of 1:20 RPMI+ cells.)
Two-fold serial dilutions of peptoid were prepared in water at 100 times the concentration to be tested. In a 96-well plate, 198 μL of 1:20 RPMI+cells was placed in each well followed by 2 μL of 100-times compound or vehicle control in triplicate. The plate was incubated at 35° C. for 72 hours. For viability analysis, 20 μL of PrestoBlue was added to each well, the plate incubated for 8 hours, and the fluorescent intensity of each well measured (Ex. 555 nm; Em. 585 nm). All triplicate assays were repeated twice on different days.

[4] = test system: NIH/3T3 mouse fibroblasts; test: Mammalian cytotoxicity testing (MTT), NIH/3T3; assay type: cell-based
Procedure: as §1, with “For” for “NIH/3T3 mouse fibroblasts and HepG2 hepatocarcinoma cells, cells were grown in DMEM containing 10% FBS at 37° C. and 5% CO2 atmosphere. For”

[5] = test system: human red blood cells (hRBCs); test: Hemolytic activity against human red blood cells; assay type: cell-based; settings: human erythrocytes, HC10
Procedure: The hemolytic activity of peptoids against human red blood cells (hRBCs) was done as previously described. (Murugan et al. Bioorg. Med. Chem. Lett. 2013, 23(16), 4633-4636.) Briefly, hRBCs were washed 3× with PBS (11.8 mM phosphate; 140.4 mM NaCl; pH 7.4) by centrifugation (10 minutes at 1000×g). Cells were resuspended in PBS and 100 μL aliquots placed into individual wells of a 96-well plate. Peptoid solutions (2-fold serial dilution in PBS; 400-3.13 μg/mL final) were added to the wells. A negative control was prepared by adding PBS with no peptoid to the hRBCs and a positive control was prepared by adding 1% Triton X-100 to the hRBCs. The plate was incubated at 37° C. for 1 hour, centrifuged at 1000×g for 10 minutes, and 5 μL of supernatant transferred into 95 μL of PBS in a new 96-well plate. Released hemoglobin was measured by reading the absorbance at 405 nm on a spectrophotometer. All triplicate assays were repeated twice on different days. Percent hemolysis was calculated as follows:
[formula] The Hill Slope (H) and HC50 was determined using GraFit and HC10 was calculated from HC50 using the following equation: HC10=HC50[10%/(100%−10%)]^1/H NMR Analysis

[6] = C. neoformans MIC, relative to AEC5

CCCCCCCCCCCCCNCC(=O)N(CCCCN)CC(=O)N(CC(N)=O)Cc1ccco1 [AEC5, reference compound]
TD50 against HepG2 liver cells ([1]; 72 hours incubation, MTT): 56.2 µg/mL
toxicity dose 50% (TD50), HepG2 [1]: 56.2 m/mL
in vitro proteolytic stability [2]: excellent

CCCCCCCCCCCCCNCC(=O)N(CCCCN)CC(=O)N(C)CC(N)=O [AEC5sar3]
fold decrease in antifungal potency compared to AEC5 [3, 6]: 8 fold
change of mammalian cell toxicity compared to AEC5 ([1]; HepG2): little effect on mammalian toxicity

CCCCCCCCCCCCCNCC(=O)N(CCCCN)CC(=O)N(CC(N)=O)Cc1cccs1 [γ-2]
fold improvement in antifungal potency compared to AEC5 [3, 6]: 2 fold
MIC ([3]; Cryptococcus neoformans, read-out: MIC against C. neoformans): < 3.5 µg/mL
selectivity ratio (TD50/MIC) ([1]; HepG2 TD50 and C. neoformans MIC): 25.3
toxicity towards NIH/3T3 mouse fibroblasts compared to AEC5 [4]: decreased toxicity
selectivity ratio, NIH/3T3 mouse fibroblasts ([4]; NIH/3T3 toxicity and C. neoformans MIC): 21
level of hemolysis compared to AEC5 [5]: slightly higher levels of hemolysis

CNCC(=O)N(CCCCN)CC(=O)N(CC(N)=O)Cc1ccco1 [AEC5sar1]
antifungal potency (MIC), above highest concentration tested ([3]; sarcosine scan): > 400 m/mL
toxicity dose 50% (TD50), HepG2 [1]: > 800 m/mL

CCCCCCCCCCCCCNCC(=O)N(C)CC(=O)N(CC(N)=O)Cc1ccco1 [AEC5sar2]
fold decrease in antifungal potency compared to AEC5 [3, 6]: 2 fold
fold change of toxicity dose 50% (TD50) compared to AEC5 ([1]; HepG2, relative to AEC5, printed as increased): 2 fold
toxicity dose 50% (TD50), HepG2 [1]: 21.1 m/mL
